Earlier results on 1 molecule are cited in patent US20210393628A1, “COMPOSITIONS AND METHODS FOR MODULATING T CELL EXHAUSTION” (The Board of Trustees of the Leland Stanford Junior …, priority 2018, published 2021).

Structures are written as SMILES.

The data set has as its system tonically signaling CAR T cells. As to conditions: expanded in the presence of dasatinib.

On to `Cc1nc(Nc2ncc(C(=O)Nc3c(C)cccc3Cl)s2)cc(N2CCN(CCO)CC2)n1` [dasatinib], for which the cytotoxicity result was “augmented”.
